Laboratory results as given in ChEMBL document CHEMBL4038308, “Lipophosphonoxins II: Design, Synthesis, and Properties of Novel Broad Spectrum Antibacterial Agents” (J Med Chem, 2017).
Values after ≈ are worked out from the molar mass of the structure shown. Active and inactive are the calls of the source. The calls are words filed in the database; no cut-off is given here.

What was measured:
Enterococcus faecalis = experiment: Antibacterial activity against Enterococcus faecalis CCM 4224 after 24 hrs by microdilution method; format: functional; conditions: CCM 4224, 24 h
Burkholderia multivorans = experiment: Antibacterial activity against Burkholderia multivorans after 24 hrs by microdilution method; format: functional
Escherichia coli [1] = experiment: Antibacterial activity against Escherichia coli 16702 after 24 hrs by microdilution method; format: functional; conditions: Escherichia coli, 16702, 24 h
[2] = system: Stenotrophomonas maltophilia; experiment: Antibacterial activity against Stenotrophomonas maltophilia S2-23 after 24 hrs by microdilution method; format: functional; conditions: S2-23, 24 h
Salmonella enteritidis = experiment: Antibacterial activity against Salmonella enteritidis S2-25 after 24 hrs by microdilution method; format: functional, Salmonella enterica subsp. enterica serovar Enteritidis; conditions: Salmonella enterica, S2-25, 24 h
Staphylococcus aureus [3] = experiment: Antibacterial activity against Staphylococcus aureus CCM 4223 after 24 hrs by microdilution method; format: functional; conditions: CCM 4223, 24 h
Pseudomonas aeruginosa [4] = experiment: Antibacterial activity against Pseudomonas aeruginosa 16575 after 24 hrs by microdilution method; format: functional; conditions: Pseudomonas aeruginosa, 16575, 24 h
Pseudomonas aeruginosa [5] = experiment: Antibacterial activity against Pseudomonas aeruginosa CCM 3955 after 24 hrs by microdilution method; format: functional; conditions: CCM 3955, 24 h
Bacillus subtilis [6] = experiment: Antibacterial activity against Bacillus subtilis after 24 hrs by microdilution method; format: functional
Escherichia coli [7] = experiment: Antibacterial activity against Escherichia coli CCM 3954 after 24 hrs by microdilution method; format: functional; conditions: CCM 3954, 24 h
Acinetobacter baumannii = experiment: Antibacterial activity against Acinetobacter baumannii A3-08 after 24 hrs by microdilution method; format: functional; conditions: A3-08, 24 h
Streptococcus agalactiae = experiment: Antibacterial activity against Streptococcus agalactiae after 24 hrs by microdilution method; format: functional
Staphylococcus aureus [8] = experiment: Antibacterial activity against methicillin-resistant Staphylococcus aureus 4591 clinical isolates after 24 hrs by microdilution method; format: functional; conditions: Staphylococcus aureus, 4591, 24 h
Enterococcus faecium = experiment: Antibacterial activity against vancomycin-resistant Enterococcus faecium 419/ana clinical isolates after 24 hrs by microdilution method; format: functional
[9] = system: Staphylococcus haemolyticus; experiment: Antibacterial activity against fluoroquinolne-resistant Staphylococcus haemolyticus 16568 after 24 hrs by microdilution method; format: functional; conditions: Staphylococcus haemolyticus, 16568, 24 h
[10] = system: Staphylococcus epidermidis; experiment: Antibacterial activity against Staphylococcus epidermidis 8700/B after 24 hrs by microdilution method; format: functional
Lipid bilayer = experiment: Binding affinity to DOPG large unilamellar vesicle assessed as carboxyfluorescein leakage at 10 mg/L after 20 secs by fluorescence-based assay relative to control
Bacillus subtilis [11] = experiment: Antibacterial activity against Bacillus subtilis assessed as inhibition of peptidoglycan synthesis at 2 mg/L after 50 mins by [3H]-N-acetylglucosamine incorporation assay; format: functional
Bacillus subtilis [12] = experiment: Antibacterial activity against Bacillus subtilis assessed as inhibition of RNA synthesis at 2 mg/L after 50 mins by [3H]-uridine incorporation assay; format: functional
Bacillus subtilis [13] = experiment: Antibacterial activity against Bacillus subtilis assessed as inhibition of protein synthesis at 2 mg/L after 50 mins by [35S]-methionine incorporation assay; format: functional
Bacillus subtilis [14] = experiment: Antibacterial activity against Bacillus subtilis assessed as inhibition of plasma membrane lipids synthesis at 2 mg/L after 50 mins by [3H]-sodium acetate incorporation assay; format: functional
Bacillus subtilis [15] = experiment: Antibacterial activity against Bacillus subtilis assessed as inhibition of DNA synthesis at 2 mg/L after 50 mins by [3H]thymidine incorporation assay; format: functional

SMILES | MIC (Enterococcus faecalis) | MIC (Burkholderia multivorans) | MIC (Escherichia coli [1]) | MIC [2] | MIC (Salmonella enteritidis) | MIC (Staphylococcus aureus [3]) | MIC (Pseudomonas aeruginosa [4]) | MIC (Pseudomonas aeruginosa [5]) | MIC (Bacillus subtilis [6]) | MIC (Escherichia coli [7]) | MIC (Acinetobacter baumannii) | MIC (Streptococcus agalactiae) | MIC (Staphylococcus aureus [8]) | MIC (Enterococcus faecium) | MIC [9] | MIC [10] | other results
CCCCCCCCCCCCCOP(=O)(CCN(CCCNC(=N)N)CCCNC(=N)N)OC[C@H]1O[C@@H](n2ccc(=O)[nH]c2=O)[C@H](O)[C@@H]1O (some centres undefined) | 25 µg/mL (≈ 34.2 µM) | 50 µg/mL (≈ 68.3 µM) | 12.5 µg/mL (≈ 17.1 µM) | 25 µg/mL (≈ 34.2 µM) | 12.5 µg/mL (≈ 17.1 µM) | 6.25 µg/mL (≈ 8.54 µM) | 25 µg/mL (≈ 34.2 µM) | 3.13 µg/mL (≈ 4.28 µM) | 1.56 µg/mL (≈ 2.13 µM) | 12.5 µg/mL (≈ 17.1 µM) | 25 µg/mL (≈ 34.2 µM) | 3.13 µg/mL (≈ 4.28 µM) | 12.5 µg/mL (≈ 17.1 µM) | 50 µg/mL (≈ 68.3 µM) | 3.13 µg/mL (≈ 4.28 µM) | 6.25 µg/mL (≈ 8.54 µM) | –
CCCCCCCCCCCCCCCCOP(=O)(CCN(CCNC(=N)N)CCNC(=N)N)OC[C@H]1O[C@@H](n2ccc(=O)[nH]c2=O)[C@H](O)[C@@H]1O (some centres undefined) | 25 µg/mL (≈ 33.5 µM) | 25 µg/mL (≈ 33.5 µM) | 3.13 µg/mL (≈ 4.2 µM) | 3.13 µg/mL (≈ 4.2 µM) | 3.13 µg/mL (≈ 4.2 µM) | 6.25 µg/mL (≈ 8.38 µM) | 6.25 µg/mL (≈ 8.38 µM) | 6.25 µg/mL (≈ 8.38 µM) | 3.13 µg/mL (≈ 4.2 µM) | 3.13 µg/mL (≈ 4.2 µM) | 6.25 µg/mL (≈ 8.38 µM) | 3.13 µg/mL (≈ 4.2 µM) | 6.25 µg/mL (≈ 8.38 µM) | 50 µg/mL (≈ 67 µM) | 6.25 µg/mL (≈ 8.38 µM) | 3.13 µg/mL (≈ 4.2 µM) | –
CCCCCCCCCCCCCCCCOP(=O)(CCN(CCCN)CCCN)OC[C@H]1O[C@@H](n2ccc(=O)[nH]c2=O)[C@H](O)[C@@H]1O (some centres undefined) | 50 µg/mL (≈ 72.5 µM) | 50 µg/mL (≈ 72.5 µM) | 3.13 µg/mL (≈ 4.54 µM) | 3.13 µg/mL (≈ 4.54 µM) | 3.13 µg/mL (≈ 4.54 µM) | 12.5 µg/mL (≈ 18.1 µM) | 3.13 µg/mL (≈ 4.54 µM) | 6.25 µg/mL (≈ 9.06 µM) | 0.78 µg/mL (≈ 1.13 µM) | 3.13 µg/mL (≈ 4.54 µM) | 3.13 µg/mL (≈ 4.54 µM) | 3.13 µg/mL (≈ 4.54 µM) | 25 µg/mL (≈ 36.2 µM) | 25 µg/mL (≈ 36.2 µM) | 3.13 µg/mL (≈ 4.54 µM) | 3.13 µg/mL (≈ 4.54 µM) | –
CCCCCCCCCCCCCCOP(=O)(CCN(CCCNC(=N)N)CCCNC(=N)N)OC[C@H]1O[C@@H](n2ccc(=O)[nH]c2=O)[C@H](O)[C@@H]1O (some centres undefined) | 12.5 µg/mL (≈ 16.8 µM) | 100 µg/mL (≈ 134 µM) | 3.13 µg/mL (≈ 4.2 µM) | 12.5 µg/mL (≈ 16.8 µM) | 3.13 µg/mL (≈ 4.2 µM) | 6.25 µg/mL (≈ 8.38 µM) | 6.25 µg/mL (≈ 8.38 µM) | 3.13 µg/mL (≈ 4.2 µM) | 1.56 µg/mL (≈ 2.09 µM) | 3.13 µg/mL (≈ 4.2 µM) | 12.5 µg/mL (≈ 16.8 µM) | 3.13 µg/mL (≈ 4.2 µM) | 6.25 µg/mL (≈ 8.38 µM) | 50 µg/mL (≈ 67 µM) | 3.13 µg/mL (≈ 4.2 µM) | 3.13 µg/mL (≈ 4.2 µM) | Activity (Lipid bilayer): Active
CCCCCCCCCCCCCOP(=O)(CCN(CCCN)CCCN)OC[C@H]1O[C@@H](n2ccc(=O)[nH]c2=O)[C@H](O)[C@@H]1O (some centres undefined) | 50 µg/mL (≈ 77.2 µM) | 50 µg/mL (≈ 77.2 µM) | 50 µg/mL (≈ 77.2 µM) | 50 µg/mL (≈ 77.2 µM) | 50 µg/mL (≈ 77.2 µM) | 12.5 µg/mL (≈ 19.3 µM) | 25 µg/mL (≈ 38.6 µM) | 3.13 µg/mL (≈ 4.83 µM) | 3.13 µg/mL (≈ 4.83 µM) | 25 µg/mL (≈ 38.6 µM) | 50 µg/mL (≈ 77.2 µM) | 6.25 µg/mL (≈ 9.65 µM) | 25 µg/mL (≈ 38.6 µM) | 100 µg/mL (≈ 154 µM) | 6.25 µg/mL (≈ 9.65 µM) | 12.5 µg/mL (≈ 19.3 µM) | –
CCCCCCCCCCCCOP(=O)(CCN(CCCN)CCCN)OC[C@H]1O[C@@H](n2ccc(=O)[nH]c2=O)[C@H](O)[C@@H]1O (some centres undefined) | 100 µg/mL (≈ 158 µM) | > 200 µg/mL | 25 µg/mL (≈ 39.4 µM) | 6.25 µg/mL (≈ 9.86 µM) | 6.25 µg/mL (≈ 9.86 µM) | 25 µg/mL (≈ 39.4 µM) | 50 µg/mL (≈ 78.9 µM) | 3.13 µg/mL (≈ 4.94 µM) | 3.13 µg/mL (≈ 4.94 µM) | 25 µg/mL (≈ 39.4 µM) | 6.25 µg/mL (≈ 9.86 µM) | 3.13 µg/mL (≈ 4.94 µM) | 200 µg/mL (≈ 316 µM) | 25 µg/mL (≈ 39.4 µM) | 200 µg/mL (≈ 316 µM) | 6.25 µg/mL (≈ 9.86 µM) | –
CC1(C)S[C@@H]2[C@H](NC(=O)[C@H](N)c3ccccc3)C(=O)N2[C@H]1C(=O)O | – | – | – | – | – | – | – | – | – | – | – | – | – | – | – | – | inhibition (Bacillus subtilis [11]): Active; inhibition (Bacillus subtilis [12]): Active; inhibition (Bacillus subtilis [13]): Active; inhibition (Bacillus subtilis [14]): Active; inhibition (Bacillus subtilis [15]): Active
CCCCCCCCCCCCCCCCOP(=O)(CCN(CCCNC(=N)N)CCCNC(=N)N)OC[C@H]1O[C@@H](n2ccc(=O)[nH]c2=O)[C@H](O)[C@@H]1O (some centres undefined) | 6.25 µg/mL (≈ 8.08 µM) | 50 µg/mL (≈ 64.6 µM) | 1.56 µg/mL (≈ 2.02 µM) | 1.56 µg/mL (≈ 2.02 µM) | 1.56 µg/mL (≈ 2.02 µM) | 3.13 µg/mL (≈ 4.04 µM) | 3.13 µg/mL (≈ 4.04 µM) | 3.13 µg/mL (≈ 4.04 µM) | 0.78 µg/mL (≈ 1.01 µM) | 1.56 µg/mL (≈ 2.02 µM) | 3.13 µg/mL (≈ 4.04 µM) | 1.56 µg/mL (≈ 2.02 µM) | 3.13 µg/mL (≈ 4.04 µM) | 25 µg/mL (≈ 32.3 µM) | 1.56 µg/mL (≈ 2.02 µM) | 1.56 µg/mL (≈ 2.02 µM) | –
CCCCCCCCCCCCCCCOP(=O)(CCN1CCC(N)C1)OC[C@H]1O[C@@H](n2ccc(=O)[nH]c2=O)[C@H](O)[C@@H]1O (some centres undefined) | 6.25 µg/mL (≈ 9.91 µM) | 50 µg/mL (≈ 79.3 µM) | 6.25 µg/mL (≈ 9.91 µM) | 6.25 µg/mL (≈ 9.91 µM) | 6.25 µg/mL (≈ 9.91 µM) | 6.25 µg/mL (≈ 9.91 µM) | 12.5 µg/mL (≈ 19.8 µM) | 12.5 µg/mL (≈ 19.8 µM) | 3.13 µg/mL (≈ 4.96 µM) | 6.25 µg/mL (≈ 9.91 µM) | 6.25 µg/mL (≈ 9.91 µM) | 3.13 µg/mL (≈ 4.96 µM) | 6.25 µg/mL (≈ 9.91 µM) | 25 µg/mL (≈ 39.6 µM) | 6.25 µg/mL (≈ 9.91 µM) | 6.25 µg/mL (≈ 9.91 µM) | –
